Experimental data taken from patent US6528488B2, “Method for treating cystic fibrosis” (priority 1999, dated 2003).
Values joined by “and” are separate entries in the source; they are usually repeats but may differ in a detail not shown here. Identical values can stand only once. Like-named read-outs stand apart in the source and are kept apart here. Ends that are not written are not given here.

Key:
[1] = test system: P. aeruginosa; format: cell-based; details: for activity against P. aeruginosa: Example 5, FIG. 4; for cfu/plate: replicate plates; for efficacy in killing P. aeruginosa: Table 3, summary in words
Experimental: The standard procedure used for testing activity was incubation of the bacterial strain with the peptide for one hour at 37° C., followed by plating at two dilutions. Peptides having the following amino acid sequences (including P-113, as in Example 4) were tested for activity against P. aeruginosa under the conditions described above: P-113 and […] were tested against P. aeruginosa under the conditions described in the preceding examples. The dilution values were as follows: expected-2000 cfu/plate (in broth) from dilution A. A=1/2.5×dilution; plate 50 μl. B=1/2.5×dilution; plate 25 μl.

[2] = test system: P. aeruginosa; format: cell-based; details: ATCC strains and clinical CF isolates of Table 2 (assays D and A)
Experimental: These Pseudomonas clinical isolates, as well as a variety of Pseudomonas ATCC strains, were tested for their susceptibility to the histatin derivative having the sequence Ala-Lys-Arg-His-His-Gly-Tyr-Lys-Arg-Lys-Phe- His-NH2 (SEQ ID NO: 1) (P-113). P-113 was used at a concentration of 100 μg/mL to […]. P. aeruginosa ATCC 27853 was used as a control in each assay. The ATCC strains were tested using Direct Antibacterial Assay SOP 98-020; the clinical isolates were tested using either the Direct Antibacterial Assay (D) or Alamar Blue Antimicrobial/Antifungal Assay SOP 96-018 (A).
The Direct Assay is an MIC test in microtiter plate format in which cells resuspended in LM broth are exposed to two-fold dilutions of P-113, and the cell density is determined directly after an overnight incubation. Cells are inoculated onto a blood agar plate and incubated for 18 hours at 37° C., and then stored at room temperature for use later in the day. Cells are resuspended and diluted based on the optical density to a final concentration of 5×10^5 per ml in LM broth containing two-fold dilutions of antibiotics. After 16-18 hours at 37° C., the optical density is measured with a Molecular Devices Thermonix plate reader. A reading of ˜0.3 over background is observed for cells grown in the absence of drug. Readings<0.01 correlated with no visible growth. […]

## Ala-Lys-Arg- Tyr-Tyr-Gly-Tyr-Lys-Arg-Lys-Phe-Tyr-NH2 (AKRYYGYKRKFY-NH2) [P-113 Y4.5.12]
[1]
  activity against P. aeruginosa: very active

## C[C@H](NC(=O)[C@H](Cc1c[nH]cn1)NC(=O)[C@H](CO)NC(=O)[C@@H](N)CC(=O)O)C(=O)N[C@@H](CCCCN)C(=O)N[C@@H](CCCNC(=N)N)C(=O)N[C@@H](Cc1c[nH]cn1)C(=O)N[C@@H](Cc1c[nH]cn1)C(=O)NCC(=O)N[C@@H](Cc1ccc(O)cc1)C(=O)N[C@@H](CCCCN)C(=O)N[C@@H](CCCNC(=N)N)C(=O)N[C@@H](CCCCN)C(=O)N[C@@H](Cc1ccccc1)C(=O)N[C@@H](Cc1c[nH]cn1)C(=O)N[C@@H](CCC(=O)O)C(=O)N[C@@H](CCCCN)C(=O)N[C@@H](Cc1c[nH]cn1)C(=O)N[C@@H](Cc1c[nH]cn1)C(=O)N[C@@H](CO)C(=O)N[C@@H](Cc1c[nH]cn1)C(=O)N[C@@H](CCCNC(=N)N)C(=O)NCC(=O)N[C@@H](Cc1ccc(O)cc1)C(=O)O [His-5, histatin 5, reference compound]
[1]; 0.5 μM, dilution A
  cfu/plate: 150 cfu/plate and 164 cfu/plate
[1]; 0.5 μM, dilution B
  cfu/plate: 90 cfu/plate and 96 cfu/plate
[1]; 5 μM, dilution A
  cfu/plate: 143 cfu/plate and 159 cfu/plate
[1]; 5 μM, dilution B
  cfu/plate: 73 cfu/plate and 68 cfu/plate
[1]; 200 μM, dilution A
  cfu/plate: 0 cfu/plate
[1]; 200 μM, dilution B
  cfu/plate: 0 cfu/plate
[1]
  efficacy in killing P. aeruginosa: effective in killing these bacteria

## Ala-Gln-Arg-His-His- Gly-Tyr-Lys-Arg-Gln-Phe-His-NH2 (AQRHHGYKRQFH-NH2) [P-113 Q2.10]
[1]
  activity against P. aeruginosa: very active

## Ala-Gln-Gln-His-His-Gly-Tyr- Lys-Gln-Gln-Phe-His-NH2 (AQQHHGYKQQFH-NH2) [P-113 Q2.3.9.10]
[1]
  activity against P. aeruginosa: inactive

## Ala-Lys-Gln-His-His-Gly- Tyr-Lys-Gln-Lys-Phe-His-NH2 (AKQHHGYKQKFH-NH2) [P-113 Q3.9]
[1]
  activity against P. aeruginosa: also active

## Ala-Lys-Arg-Leu- Leu-Gly-Tyr-Lys-Arg-Lys-Phe-Leu-NH2 (AKRLLGYKRKFL-NH2) [P-113 L4.5.12]
[1]
  activity against P. aeruginosa: also active

## AKRHHGYKRKFH-NH2 [P-113, Ala-Lys-Arg-His-His-Gly-Tyr-Lys-Arg-Lys-Phe- His-NH2]
[1]; 5 μM as printed, second P-113 5 μM line (after His-5 0.5 μM), dilution A
  cfu/plate: 133 cfu/plate and 170 cfu/plate
[1]; 5 μM as printed, second P-113 5 μM line (after His-5 0.5 μM), dilution B
  cfu/plate: 88 cfu/plate and 85 cfu/plate
[1]; 50 μM, dilution A
  cfu/plate: 0 cfu/plate
[1]; 200 μM, dilution A
  cfu/plate: 0 cfu/plate
[1]; 200 μM, dilution B
  cfu/plate: 0 cfu/plate
[1]
  activity against P. aeruginosa: very active
  efficacy in killing P. aeruginosa: greater efficacy than His-5
[2]
  effectiveness against the Pseudomonas strains tested: effective against nearly all of the Pseudomonas strains tested
